Data reported in paper PMC6789111, “Crossing the blood-brain-barrier with nanoligand drug carriers self-assembled from a phage display peptide” (Nature Communications, 2019).

How the values were obtained:
hCMEC/D3 cells = assay: Uptake with internalisation inhibitors; details: 37 °C
Method: The medium was then removed and replaced with a fresh medium containing NLCs and the corresponding inhibitor. After 8 h of incubation at 37 °C, cells were washed three times with cell medium and analysed by FACS. Cell viability at the end of each experiment was >90% as determined by Trypan Blue exclusion test. The following inhibitors were used: 2-deoxy-D-glucose (1 mM)/sodium azide (1 mM) as energy-dependent inhibitors, worthmanin (10 μM) as macropinocytosis inhibitor, chloropromazine (30 μM) as clathrin-dependent endocytosis inhibitor, N-ethylmaleimide (5 μM) as caveolae-dependent endocytosis and transcytosis inhibitor and indomethacin (200 μM) as caveolae-dependent endocytosis inhibitor.

[1] = Blood clearance after intravenous injection; format: in vivo, ICR mice; details: Cy5.5 peptide i.v., Ave
Method: (§1) The final concentration of the peptide conjugate was 10 µM and that of siRNA was 48 nM based on blood volume calculation equivalent to 6% of the body weight. At different time points blood samples were collected via retro-orbital blood collection. For whole animal imaging system mice were anaesthetised with isoflurane and in vivo fluorescence images were taken (IVIS 200 Spectrum, USA), at different time points. At 4 h post administration, mice were sacrificed, and the liver, lungs, kidneys, spleen, pancreas and brain were collected and stored in liquid nitrogen. The organs were homogenised (FastPrep-24™ 5G Instrument, MP Biomedicals, USA) and the levels of peptide and siRNA were measured in a fluorescence spectrometer (Fluotime 300, Picoquant, Berlin, Germany) using a standard curve.

[2] = Brain level after intravenous injection; format: in vivo, ICR mice; details: for Brain level (% of injected dose): Cy5.5 peptide i.v., Ave
Method: as §1, with “At 4 h post administration, mice were sacrificed, and the liver, lungs, kidneys, spleen, pancreas and brain were collected and stored in liquid nitrogen.” left out

Blood level (% of injected dose) ([1]; 0.25 h)	Blood level (% of injected dose) ([1]; 0.50 h)	Blood level (% of injected dose) ([1]; 1.00 h)	Blood level (% of injected dose) ([1]; 4.00 h)	Blood level (% of injected dose) ([1]; 12.00 h)	Blood level (% of injected dose) ([1]; 24.00 h)	Brain level (% of injected dose) ([2]; 0.25 h)	Brain level (% of injected dose) ([2]; 0.50 h)	Brain level (% of injected dose) ([2]; 1.00 h)	Brain level (% of injected dose) ([2]; 4.00 h)	Brain level (% of injected dose) ([2]; 12.00 h)	Brain level (% of injected dose) ([2]; 24.00 h)	Substance	other results
												Transferrin: Texas Red-labelled transferrin, TfR substrate, positive control [reference compound]	Mean flouresence (%), uptake vs Control (no inhibitor) (hCMEC/D3 cells; CPZ (chloropromazine 30 μM), 8 h, replicate 1): 55.06%; Mean flouresence (%), uptake vs Control (no inhibitor) (hCMEC/D3 cells; CPZ (chloropromazine 30 μM), 8 h, replicate 2): 58.26%; Mean flouresence (%), uptake vs Control (no inhibitor) (hCMEC/D3 cells; CPZ (chloropromazine 30 μM), 8 h, replicate 3): 48.74%; Mean flouresence (%), uptake vs Control (no inhibitor) (hCMEC/D3 cells; DOG+NaN3 (1 mM/1 mM), 8 h, replicate 2): 38.57%; Mean flouresence (%), uptake vs Control (no inhibitor) (hCMEC/D3 cells; DOG+NaN3 (1 mM/1 mM), 8 h, replicate 3): 34.62%; Mean flouresence (%), uptake vs Control (no inhibitor) (hCMEC/D3 cells; DOG+NaN3 (2-deoxy-D-glucose 1 mM/sodium azide 1 mM), 8 h, replicate 1): 42.26%; Mean flouresence (%), uptake vs Control (no inhibitor) (hCMEC/D3 cells; IMC (indomethacin 200 μM), 1 h pre-treatment + 8 h, FACS, FAM-CGY NLC 5 µM or Texas Red-transferrin 5 µg per well, replicate 1): 102.05%; Mean flouresence (%), uptake vs Control (no inhibitor) (hCMEC/D3 cells; IMC (indomethacin 200 μM), 8 h, replicate 2): 90.27%; Mean flouresence (%), uptake vs Control (no inhibitor) (hCMEC/D3 cells; NEM (N-ethylmaleimide 5 μM), 8 h, replicate 1): 86.23%; Mean flouresence (%), uptake vs Control (no inhibitor) (hCMEC/D3 cells; NEM (N-ethylmaleimide 5 μM), 8 h, replicate 2): 95.58%; Mean flouresence (%), uptake vs Control (no inhibitor) (hCMEC/D3 cells; NEM (N-ethylmaleimide 5 μM), 8 h, replicate 3): 86.57%; Mean flouresence (%), uptake vs Control (no inhibitor) (hCMEC/D3 cells; WOR (worthmanin 10 μM), 8 h, replicate 1): 112.26%; Mean flouresence (%), uptake vs Control (no inhibitor) (hCMEC/D3 cells; WOR (worthmanin 10 μM), 8 h, replicate 2): 98.26%; Mean flouresence (%), uptake vs Control (no inhibitor) (hCMEC/D3 cells; WOR (worthmanin 10 μM), 8 h, replicate 3): 108.61%
65.67 % of injected dose	27.80 % of injected dose	11.82 % of injected dose	6.91 % of injected dose	3.51 % of injected dose	1.61 % of injected dose	0.74 % of injected dose	1.20 % of injected dose	1.71 % of injected dose	1.92 % of injected dose	1.01 % of injected dose	0.39 % of injected dose	Cy5.5- CGYRPVHNIGHWRAPG [Cy5.5-CGY scrambled 1]	brain accumulation ([2]; i.v., mice): poorly accumulates in the brain
77.38 % of injected dose	31.74 % of injected dose	14.16 % of injected dose	12.22 % of injected dose	6.13 % of injected dose	1.31 % of injected dose	2.16 % of injected dose	3.71 % of injected dose	5.40 % of injected dose	5.73 % of injected dose	3.72 % of injected dose	1.71 % of injected dose	Cy5.5-CGYRPVHNIRGHWAPG	peak brain level ([2]; 4 h after i.v., corrected for the blood content): 5.7 % of the injected dose
